| Compound | glass transition temperature [°C] |
| --- | --- |
| *C(=O)NNC(=O)c1ccc([Si](c2ccccc2)(c2ccccc2)c2ccc(C(=O)NNC(=O)c3ccc(*)nc3)cc2)cc1 (repeat unit) | 240.00 |
| */C(=C(/*)c1ccc[c]([Ge]([CH3])([CH3])[CH3])c1)c1ccccc1 (repeat unit) | 200.00 |
| *Nc1ccc(Cc2ccc(NC(=O)/C=C/c3ccc(/C=C/C(*)=O)cc3)cc2)cc1 (repeat unit) | 230.00 |
| *CC(*)c1ccc(CCCCCCCCCCCCCCCCCC)cc1 (repeat unit) | 32.00 |
| *c1ccc(Oc2ccc(N3C(=O)c4ccc(Oc5ccc6c(c5)C(=O)N(*)C6=O)cc4C3=O)cc2Br)c(Br)c1 (repeat unit) | 251.00 |
| *C(=O)Nc1ccc(Oc2ccc(NC(=O)c3ccc4c(c3)C(=O)N(c3ccc(Oc5ccc(N6C(=O)c7ccc(*)cc7C6=O)cc5-c5ccccc5)c(-c5ccccc5)c3)C4=O)cc2-c2ccccc2)c(-c2ccccc2)c1 (repeat unit) | 369.00 |
| *Oc1ccc(Oc2ccc(C(=O)c3cccc(NC(=O)c4cccc(C(=O)Nc5cccc(C(=O)c6ccc(*)cc6)c5)c4)c3)cc2)cc1 (repeat unit) | 202.00 |
| *CCCN1C(=O)c2ccc(C(c3ccc4c(c3)C(=O)N(*)C4=O)(C(F)(F)F)C(F)(F)F)cc2C1=O (repeat unit) | 190.00 |
| *Oc1ccc(C2(c3ccc(Oc4ccc(C(=O)Oc5ccc(C(C)(C)c6ccc(OC(=O)c7ccc(*)cc7)cc6)cc5)cc4)cc3)CCC(C(C)(C)C)CC2)cc1 (repeat unit) | 144.00 |
| *ON(C(F)(F)F)C(F)(Cl)C(*)(F)F (repeat unit) | -50.00 |
| *CC1(*)CC(=O)N(c2ccccc2)C1=O (repeat unit) | 236.00 |
| *Oc1ccc(C(c2ccccc2)c2ccc(OC(*)=O)cc2)cc1 (repeat unit) | 170.00 |
| *CCOCCOC(=O)CCCCCCCCCCCCCCCCC(=O)O* (repeat unit) | -68.00 |
| *O[Si](C)(C)O[Si](C)(C)O[Si](C)(C)O[Si](C)(C)OC1=C(*)c2cccc3cccc1c23 (repeat unit) | -43.00 |
| *CC(*)OCCOCCOCCOC (repeat unit) | -76.00 |
| *Oc1cccc2ccc(Oc3ccc(NC(=O)c4ccc(Oc5ccc(C(C)(c6ccccc6)c6ccc(Oc7ccc(C(=O)Nc8ccc(*)cc8)cc7)cc6)cc5)cc4)cc3)cc12 (repeat unit) | 212.00 |
| *CC(O)COc1c(C)cc(C(C)(C)c2cc(C)c(O*)c(C)c2)cc1C (repeat unit) | 130.00 |

| Compound | glass transition temperature [°C] |
| --- | --- |
| *ON(C(F)(F)F)C(F)(F)C(*)(F)SC(F)(F)F (repeat unit) | -48.00 |
| *OC(F)(F)C(*)(F)F (repeat unit) | -48.00 |
| *OC(COC(=O)c1ccc(C)cc1C(*)=O)COc1ccc(/N=N/c2ccc(C#N)cc2)cc1 (repeat unit) | 124.00 |
| *CC(*)C(=O)Oc1ccc(C(=O)OC)cc1 (repeat unit) | 67.00 |
| *c1ccc(-c2nc3ccc(-c4ccc5nc(*)c(-c6ccccc6)c(-c6ccccc6)c5c4)cc3c(-c3ccccc3)c2-c2ccccc2)cc1 (repeat unit) | 400.00 |
| *CC(COc1ccc(C(C)(C)c2ccc(O*)cc2)cc1)OC(C)=O (repeat unit) | 60.00 |
| *O[Si](*)(C)CCCCCCCCCCCOC(=O)c1cc(OC(=O)c2ccc(OCCOCCOCCOCCOCCOCCOCCOCCOC)cc2)ccc1OC(=O)c1ccc(OCCOCCOCCOCCOCCOCCOCCOCCOC)cc1 (repeat unit) | -56.00 |
| *c1cccc(N2C(=O)c3cccc(Oc4c(C)cc(Cc5cc(C)c(Oc6cccc7c6C(=O)N(*)C7=O)c(C)c5)cc4C)c3C2=O)c1 (repeat unit) | 269.00 |
| *CC(*)(C)C(=O)OCC[N+](C)(C)CCCCCCC (repeat unit) | -44.00 |
| *Oc1ccc(S(=O)(=O)c2ccc(Oc3ccc(C(C)(C)c4ccc(OCCCCOc5ccc(C(C)(C)c6ccc(*)cc6)cc5)cc4)cc3)cc2)cc1 (repeat unit) | 140.00 |
| *CC(OCC(C)C)C(C(=O)OC)C(*)C(=O)OC (repeat unit) | 44.50 |
| *CC(*)(Cl)C(=O)OC (repeat unit) | 125.00 |
| *CCCC(=O)Nc1ccc(NC(=O)CCCN2C(=O)c3ccc(C(=O)c4ccc5c(c4)C(=O)N(*)C5=O)cc3C2=O)cc1 (repeat unit) | 209.00 |
| *CC(F)(F)C(F)(F)COC(=O)NCC(F)(F)C(F)(F)C(F)(F)C(F)(F)CNC(=O)O* (repeat unit) | 38.00 |
| *Oc1ccc(C(=O)c2cccc(NC(=O)CCCCCCCCC(=O)Nc3cccc(C(=O)c4ccc(*)cc4)c3)c2)cc1 (repeat unit) | 141.00 |
| *Oc1ccc(Oc2ccc(NC(=O)c3ccc(-c4ccc(C(=O)Nc5ccc(*)cc5)c(C)c4)cc3C)cc2)cc1 (repeat unit) | 219.00 |
